Our source for the PC50, Activity and inhibition values is ChEMBL document CHEMBL5120816, “Abietane diterpenes from Abies spectabilis and their anti-pancreatic cancer activity against the MIA PaCa-2 cell line” (Bioorg Med Chem Lett, 2022).

Each structure is given as a SMILES string. The source made the active and inactive calls. No cut-off for these calls is given here. Bounds are passed on as bounds.

Series [1] concerns MIA PaCa-2. As to the kind of experiment: Preferential cytotoxicity against human MIA PaCa-2 cells in nutrient-deprived medium. The format is functional.
Series [2] is described as follows: Toxicity against human MIA PaCa-2 cells in nutrient-rich medium (DMEM). The format is cell-based.
Series [3] can be described thus: Effect on total mTOR protein level in human MIA PaCa-2 cells at 10 to 20 uM incubated for 6 hrs in nutrient-deprived medium by Western blot analysis. The format is toxicity, cell-based. To be noted: mia paca-2, 6 h, dose 10-20 µM. (Immunoblotting shows a protein as a band on a membrane.)
Series [4] concerns MIA PaCa-2. The series can be described thus: Down regulation of autophagy marker expression in human MIA PaCa-2 cells assessed as reduction in LC3-I expression at 10 to 20 uM in nutrient-deprived medium by Western blot analysis. The format is functional, cell-based. To be noted: dose 10-20 µM.
The subject of series [5] is MIA PaCa-2. As to the kind of experiment: Induction of cellular morphology changes in human MIA PaCa-2 cells assessed as rounding of cells and membrane rupture at 6.25 to 10 uM incubated for 24 hrs in nutrient-deprived medium by ethidium bromide-acridine orange double staining based EVOS FL digital microscopy". It is filed as functional, cell-based. To be noted: dose 6.25-10 µM, DDE = dose-dependent effect.

The target in series [6] is Serine/threonine-protein kinase mTOR (Homo sapiens) (UniProt P42345). As to the kind of experiment: Inhibition of mTOR S2481 phosphorylation in human MIA PaCa-2 cells at 10 to 20 uM incubated for 6 hrs in nutrient-deprived medium by Western blot analysis. The format is cell-based. The note with it: dose 10-20 µM.
Series [7] deals with MIA PaCa-2. The series can be described thus: […] in human MIA PaCa-2 cells assessed as membrane blebbing , cell rupture and leakage of intracellular components into the medium at 20 uM incubated for 24 hrs in nutrient-deprived medium by Hoechst 33342 staining based assay". It is filed as functional.
In series [8] the test system is MIA PaCa-2. As to the kind of experiment: Down regulation of autophagy marker expression in human MIA PaCa-2 cells assessed as reduction in LC3-II expression at 10 to 20 uM in nutrient-deprived medium by Western blot analysis. It is filed as functional, cell-based. To be noted: dose 10-20 µM.
Series [9] concerns MIA PaCa-2. The series can be described thus: Down regulation of autophagy marker expression in human MIA PaCa-2 cells assessed as reduction in Atg12 expression at 10 to 20 uM in nutrient-deprived medium by Western blot analysis. The note with it: dose 10-20 µM. The format is functional, cell-based.
In series [10] the test system is MIA PaCa-2. The series can be described thus: Induction of apoptosis in human MIA PaCa-2 cells assessed as down regulation of Bcl2 expression at 10 to 20 uM incubated for 24 hrs in nutrient-deprived medium by Western blot analysis. It is filed as functional, cell-based. The note with it: dose 10-20 µM.
Series [11] deals with MIA PaCa-2. The series can be described thus: Induction of cell death in human MIA PaCa-2 cells assessed as rounding of cells and membrane rupture at 5 uM incubated for 24 hrs in nutrient-deprived medium by ethidium bromide-acridine orange double staining based EVOS FL digital microscopy". It is filed as functional.
The test system of series [12] is MIA PaCa-2. As to the kind of experiment: Induction of apoptosis in human MIA PaCa-2 cells assessed as down regulation of caspase-3 expression at 10 to 20 uM incubated for 24 hrs in nutrient-deprived medium by Western blot analysis. The note with it: dose 10-20 µM. The format is functional, cell-based.
For series [13], the system named is MIA PaCa-2. The series can be described thus: Inhibition of cell migration of human MIA PaCa-2 cells assessed as open area level at 20 uM incubated for 24 hrs in nutrient-deprived medium by quantitative real-time cancer cell migration assay (reference value: 100%). Also noted: scale not given: the % may be the effect or the level left. The format is functional.

In series [14] the test system is MIA PaCa-2. The series can be described thus: Down regulation of autophagy marker expression in human MIA PaCa-2 cells assessed as reduction in Atg7 expression at 10 to 20 uM in nutrient-deprived medium by Western blot analysis. The format is functional, cell-based. To be noted: dose 10-20 µM.
Series [15] concerns MIA PaCa-2. The series can be described thus: Induction of apoptosis in human MIA PaCa-2 cells assessed as down regulation of Bcl-xL expression at 10 to 20 uM incubated for 24 hrs in nutrient-deprived medium by Western blot analysis. The format is functional, cell-based. The note with it: dose 10-20 µM.
Series [16] deals with MIA PaCa-2. As to the kind of experiment: Inhibition of cell migration of human MIA PaCa-2 cells assessed as open area level at 20 uM incubated for 48 hrs in nutrient-deprived medium by quantitative real-time cancer cell migration assay (reference value: 8.9%). It is filed as functional. Also noted: scale not given: the % may be the effect or the level left.
In series [17] the test system is MIA PaCa-2. As to the kind of experiment: Inhibition of AKT S473 phosphorylation in human MIA PaCa-2 cells at 10 to 20 uM incubated for 6 hrs in nutrient-deprived medium by Western blot analysis. The format is cell-based. To be noted: dose 10-20 µM.
A short description of series [18]: Effect on total AKt protein level in human MIA PaCa-2 cells at 10 to 20 uM incubated for 6 hrs in nutrient-deprived medium by Western blot analysis. It is filed as toxicity, cell-based. To be noted: mia paca-2, 6 h, dose 10-20 µM.
For series [19], the system named is MIA PaCa-2. As to the kind of experiment: Down regulation of autophagy marker expression in human MIA PaCa-2 cells assessed as reduction in Atg5 expression at 10 to 20 uM in nutrient-deprived medium by Western blot analysis. The note with it: dose 10-20 µM. It is filed as functional, cell-based.

Take `C[C@]12CCC[C@@](C)(C(=O)O)[C@@H]1CCC1=CC(=O)CC[C@@H]12`: the PC50 in series [1] came out at 55.5 µM. The Activity result in series [2] is given as “Non-Toxic”.
In turn, `CC(C)[C@]1(O)C=C2C(=O)C[C@@H]3[C@](C)(CCC[C@@]3(C)C(=O)O)[C@H]2CC1` displayed a PC50 in series [1] above 100 µM. Further, the Activity result in series [2] is reported as “Non-Toxic”.
In [1], `C=C/C(C)=C\C[C@@H]1[C@@]2(C)CCCC(C)(C)[C@@H]2CC(=O)[C@@]1(C)O` showed a PC50 of 15.2 µM. Moreover, the Activity entry in [2] was “Non-Toxic”.
In the same order, the values of `CC(C)[C@@]1(O)C=C2C(=O)C[C@@H]3[C@](C)(CCC[C@@]3(C)C(=O)O)[C@H]2CC1` are 70.7 µM and “Non-Toxic”.
For `CC(C)[C@@]1(O)C=C2C(=O)C[C@H]3[C@](C)(COC(=O)CCC(=O)O)CCC[C@]3(C)[C@H]2CC1` the same measures were 82.9 µM and “Non-Toxic”.
For `C[C@@]1(CO)CCC[C@]2(C)[C@H]3CCC(=O)C=C3CC[C@@H]12`, in series [1], the PC50 was 35.8 µM. The Activity entry in series [2] is “Non-Toxic”.
In turn, `CC(C)C1=CC[C@H]2C(=C1)C(=O)C[C@@H]1[C@]2(C)CCC[C@@]1(C)C(=O)O` [ABIESADINE E] gave a PC50 in [1] of 42.3 µM. In addition, the Activity result in series [2] is on record as “Non-Toxic”.
As for `COc1cc(C[C@H]2C(=O)OC[C@@H]2Cc2ccc(OC)c(OC)c2)ccc1O` [ARCTIGENIN], the PC50 in series [1] was 0.7 µM. The Activity result in series [2] is recorded as “Non-Toxic”.
As for `CC(C)c1ccc2c(c1)CC[C@H]1[C@](C)(C(=O)O)CCC[C@]21C` [DEHYDROABIETIC ACID], the PC50 in series [1] was found to be 16.9 µM. In [2], the Activity result is “Non-Toxic”.
In the case of `CC(C)c1ccc2c(c1)CC[C@H]1[C@](C)(CO)CCC[C@]21C` [POMIFERIN A], the Activity entry in series [3] was “Non-Toxic”; in [5] it was “Dde”; in [11], 100%; in series [13], 64%; in series [16], 30.8%; in [18], “Non-Toxic”. In addition, the Activity entry in series [2] is recorded as “Non-Toxic”. Further, the outcome in series [4], in [7], in [8], in series [9], in series [10] and in series [12] was Active. Also, the result in [14], in series [15] and in series [19] was Active. Also, the inhibition entry in series [6] and in series [17] was “Active” throughout. In series [1], the PC50 is 6.6 µM.
